Patent US11008346B2, “Beta-lactamase inhibitors” (priority 2014, dated 2021)
Where two headings read alike, the source gives them in different places.

How the values were obtained:
[1] = target: T1, SHV-5 β-lactamase (Klebsiella pneumoniae, UniProt P0A3M1); test: β-lactamase enzyme inhibition, SHV-5; type: biochemical
T1 construct: made in house; host or cells: E. coli BL21(DE3)
Outline: (§1)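 IC50 values reflect inhibitor concentrations halving the initial hydrolysis rate relative to uninhibited wells. Untagged recombinant enzymes were exposed to inhibitor at 37° C for 15 min before substrate addition: 100 μM nitrocefin for OXA-1 and p99 AmpC, imipenem for KPC-2, cefotaxime for SHV-5, each monitored spectrophotometrically for 10 min.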

[2] = target: T2, KPC-2 β-lactamase (Klebsiella pneumoniae, UniProt Q9F663); test: β-lactamase enzyme inhibition, KPC-2; type: biochemical
T2 construct: made in house; host or cells: E. coli BL21(DE3)
Outline: as §1

[3] = target: T3, VIM-2 metallo β-lactamase (Pseudomonas aeruginosa, UniProt Q9K2N0); test: β-lactamase enzyme inhibition, VIM-2; type: biochemical; conditions: Nitrocefin 100 μM, 486 nm; 15 min at 37° C. preincubation; read-out: IC50 VIM-2 (Class B)
T3 construct: made in house; host or cells: E. coli BL21(DE3)
Outline: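 VIM-2 purified by Q sepharose anion exchange (50 mM Hepes pH 7.5, 0-600 mM NaCl gradient, two runs, >90% purity). Enzyme preincubated with inhibitor 15 min at 37° C; nitrocefin 100 μM final, absorbance at 486 nm followed 10 min. IC50 from initial hydrolysis rates versus inhibitor-free controls.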

[4] = target: T4, p99 AmpC β-lactamase (Enterobacter cloacae, UniProt P05364); test: β-lactamase enzyme inhibition, p99 AmpC; type: biochemical
T4 construct: made in house; host or cells: E. coli BL21(DE3)
Outline: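 Native untagged E. cloacae p99 AmpC was expressed in E. coli BL21(DE3) and purified by cation exchange and gel filtration. Enzyme was preincubated with inhibitor at 37°C for 15 min.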

[5] = target: T5, OXA-1 β-lactamase (Escherichia coli, UniProt P13661); test: β-lactamase enzyme inhibition, OXA-1; type: biochemical; conditions: Nitrocefin 100 μM, 486 nm; 15 min at 37° C. preincubation; read-out: IC50 OXA-1 (Class D)
T5 construct: made in house; host or cells: E. coli BL21(DE3)
Outline: as §1

[6] = test system: E. coli ESBL4 expressing CTX-M-15; test: broth microdilution MIC, E. coli CTX-M-15; type: cell-based; conditions: Fixed CAZ (ceftazidime) 4 μg/mL
Outline: (§2)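 First, strains were grown 3-5 hours in CAMHB; then compound dilutions (32 to 0.25 μg/mL final) received a beta-lactam overlay at 4 μg/mL final. Finally, plates were inoculated per CLSI and incubated 16-20 hours at 37° C.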

[7] = test system: E. cloacae 144200 expressing Class C P99 AmpC; test: broth microdilution MIC, E. cloacae P99; type: cell-based; conditions: Fixed CAZ (ceftazidime) 4 μg/mL
Outline: as §2

[8] = test system: K. pneumoniae 156319 expressing KPC-3; test: broth microdilution MIC, K. pneumoniae KPC-3; type: cell-based; conditions: Fixed Mero (meropenem) 4 μg/mL
Outline: as §2

[9] = test system: P. aeruginosa Ps296 expressing VIM-2; test: broth microdilution MIC, P. aeruginosa VIM-2; type: cell-based; conditions: Fixed Mero (meropenem) 4 μg/mL
Outline: as §2

[10] = test system: K. pneumoniae A-1797 expressing KPC-2 and VIM-4; test: broth microdilution MIC, K. pneumoniae KPC-2 and VIM-4; type: cell-based; conditions: Fixed Mero (meropenem) 4 μg/mL
Outline: as §2

[11] = test system: S. aureus MSSA-7 producing penicillinase PC-1; test: broth microdilution MIC, S. aureus PC-1; type: cell-based; conditions: Fixed Pip (piperacillin) 4 μg/mL
Outline: as §2

[12] = imipenem substrate, 300 nm, 15 min at 37° C. preincubation, read-out: IC50 KPC-2 (Class A)

T2 sequence (Q9F663 25-293, looked up): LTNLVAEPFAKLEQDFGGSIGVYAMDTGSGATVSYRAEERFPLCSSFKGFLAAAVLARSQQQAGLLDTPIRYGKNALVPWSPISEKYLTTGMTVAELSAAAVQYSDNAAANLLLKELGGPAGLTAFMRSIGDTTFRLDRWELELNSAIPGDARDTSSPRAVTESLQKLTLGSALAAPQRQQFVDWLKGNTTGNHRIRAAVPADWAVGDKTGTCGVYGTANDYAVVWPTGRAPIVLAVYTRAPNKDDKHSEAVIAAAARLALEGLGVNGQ
T5 sequence (P13661 26-276): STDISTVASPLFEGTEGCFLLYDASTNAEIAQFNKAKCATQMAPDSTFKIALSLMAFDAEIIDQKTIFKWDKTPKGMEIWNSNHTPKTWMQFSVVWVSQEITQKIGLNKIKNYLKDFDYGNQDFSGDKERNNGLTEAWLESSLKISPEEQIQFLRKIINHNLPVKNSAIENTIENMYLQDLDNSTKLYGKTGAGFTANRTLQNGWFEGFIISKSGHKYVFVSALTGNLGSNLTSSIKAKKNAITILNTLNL
T4 sequence (P05364 21-381): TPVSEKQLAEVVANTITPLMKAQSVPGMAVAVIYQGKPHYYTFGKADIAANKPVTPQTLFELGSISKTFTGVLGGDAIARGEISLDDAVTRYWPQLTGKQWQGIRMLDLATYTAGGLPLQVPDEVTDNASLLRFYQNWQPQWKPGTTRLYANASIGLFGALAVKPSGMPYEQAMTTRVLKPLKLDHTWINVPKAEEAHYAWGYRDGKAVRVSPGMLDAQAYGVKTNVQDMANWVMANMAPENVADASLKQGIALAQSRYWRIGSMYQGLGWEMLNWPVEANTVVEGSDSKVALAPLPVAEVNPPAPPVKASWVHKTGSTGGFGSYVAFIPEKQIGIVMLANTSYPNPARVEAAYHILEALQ
T1 sequence (P0A3M1 22-286): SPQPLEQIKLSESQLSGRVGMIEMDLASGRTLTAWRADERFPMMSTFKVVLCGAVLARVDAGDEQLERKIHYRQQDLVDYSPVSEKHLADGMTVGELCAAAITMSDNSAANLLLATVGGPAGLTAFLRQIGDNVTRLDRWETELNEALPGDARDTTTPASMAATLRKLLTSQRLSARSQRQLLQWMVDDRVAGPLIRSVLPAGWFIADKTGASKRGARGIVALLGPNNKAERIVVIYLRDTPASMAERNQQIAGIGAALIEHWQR

SMILES | IC50 [1] | IC50 [2] | IC50 [3] | IC50 [4] | IC50 [5] | MIC of exemplary compounds in presence of fixed β-lactams, E. coli ESBL4 CTX-M-15 [6] | MIC of exemplary compounds in presence of fixed β-lactams, E. cl. 144200 p99 AmpC [7] | MIC of exemplary compounds in presence of fixed β-lactams, K.P. 156319 KPC-3 [8] | MIC of exemplary compounds in presence of fixed β-lactams, P. aerug. Ps296 VIM-2 [9] | MIC of exemplary compounds in presence of fixed β-lactams, K.P. A-1797 KPC-2 VIM-4 [10] | MIC of exemplary compounds in presence of fixed β-lactams, S. aureus MSSA-7 PC-1 [11] | IC50 [2, 12]
NC(=O)CCC(=O)N[C@H]1Cc2cccc(C(=O)O)c2OB1O [Example 16, (R)-3-(3-Carbamoyl-propionylamino)-2-hydroxy-3,4-dihydro-2H-benzo[e][1,2]oxaborinine-8-carboxylic acid] | 100 to 1000 nM | < 100 nM | 100 to 1000 nM | < 100 nM | < 100 nM | C (C represents the MIC in the presence of ≤4 g/mL of a β-lactamase inhibitor) | C (C represents the MIC in the presence of ≤4 g/mL of a β-lactamase inhibitor) | C (C represents the MIC in the presence of ≤4 g/mL of a β-lactamase inhibitor) | C (C represents the MIC in the presence of ≤4 g/mL of a β-lactamase inhibitor) | B (B represents the MIC in the presence of between 8 and 32 g/mL of a β-lactamase inhibitor) | C (C represents the MIC in the presence of ≤4 g/mL of a β-lactamase inhibitor) | 
CC(CCC(=O)N[C@H]1Cc2cccc(C(=O)O)c2OB1O)=NO [Example 17, (R)-2-Hydroxy-3-(4-hydroxyimino-pentanoylamino)-3,4-dihydro-2H-benzo[e][1,2]oxaborinine-8-carboxylic acid] | < 100 nM |  | 1000 to 10000 nM | < 100 nM | < 100 nM | C (C represents the MIC in the presence of ≤4 g/mL of a β-lactamase inhibitor) | C (C represents the MIC in the presence of ≤4 g/mL of a β-lactamase inhibitor) | B (B represents the MIC in the presence of between 8 and 32 g/mL of a β-lactamase inhibitor) | C (C represents the MIC in the presence of ≤4 g/mL of a β-lactamase inhibitor) | B (B represents the MIC in the presence of between 8 and 32 g/mL of a β-lactamase inhibitor) | C (C represents the MIC in the presence of ≤4 g/mL of a β-lactamase inhibitor) | < 100 nM
COCCC(=O)N[C@H]1Cc2cccc(C(=O)O)c2OB1O [Example 26, (R)-2-Hydroxy-3-(3-methoxy-propionylamino)-3,4-dihydro-2H-benzo[e][1,2]oxaborinine-8-carboxylic acid] | 100 to 1000 nM |  | 1000 to 10000 nM | < 100 nM | < 100 nM | C (C represents the MIC in the presence of ≤4 g/mL of a β-lactamase inhibitor) | C (C represents the MIC in the presence of ≤4 g/mL of a β-lactamase inhibitor) | C (C represents the MIC in the presence of ≤4 g/mL of a β-lactamase inhibitor) | B (B represents the MIC in the presence of between 8 and 32 g/mL of a β-lactamase inhibitor) | B (B represents the MIC in the presence of between 8 and 32 g/mL of a β-lactamase inhibitor) | C (C represents the MIC in the presence of ≤4 g/mL of a β-lactamase inhibitor) | < 100 nM
CC(=O)CCC(=O)N[C@H]1Cc2cccc(C(=O)O)c2OB1O [Example 10, (R)-2-Hydroxy-3-(4-oxo-pentanoylamino)-3,4-dihydro-2H-benzo[e][1,2]oxaborinine-8-carboxylic acid] | < 100 nM | 100 to 1000 nM | 100 to 1000 nM | < 100 nM | < 100 nM | C (C represents the MIC in the presence of ≤4 g/mL of a β-lactamase inhibitor) | C (C represents the MIC in the presence of ≤4 g/mL of a β-lactamase inhibitor) | C (C represents the MIC in the presence of ≤4 g/mL of a β-lactamase inhibitor) | C (C represents the MIC in the presence of ≤4 g/mL of a β-lactamase inhibitor) | C (C represents the MIC in the presence of ≤4 g/mL of a β-lactamase inhibitor) | C (C represents the MIC in the presence of ≤4 g/mL of a β-lactamase inhibitor) | 
N#CCCCC(=O)N[C@H]1Cc2cccc(C(=O)O)c2OB1O [Example 14, (R)-3-(4-Cyano-butyrylamino)-2-hydroxy-3,4-dihydro-2H-benzo[e][1,2]oxaborinine-8-carboxylic acid] | < 100 nM |  | 1000 to 10000 nM | < 100 nM | < 100 nM | C (C represents the MIC in the presence of ≤4 g/mL of a β-lactamase inhibitor) | C (C represents the MIC in the presence of ≤4 g/mL of a β-lactamase inhibitor) | C (C represents the MIC in the presence of ≤4 g/mL of a β-lactamase inhibitor) | C (C represents the MIC in the presence of ≤4 g/mL of a β-lactamase inhibitor) | B (B represents the MIC in the presence of between 8 and 32 g/mL of a β-lactamase inhibitor) | C (C represents the MIC in the presence of ≤4 g/mL of a β-lactamase inhibitor) | < 100 nM
O=C(Cc1ccc2c(c1)CNC2)N[C@H]1Cc2cccc(C(=O)O)c2OB1O [Example 64, (R)-3-(2-2,3-Dihydro-1H-isoindol-5-yl-acetylamino)-2-hydroxy-3,4-dihydro-2H-benzo[e][1,2]oxaborinine-8-carboxylic acid] | < 100 nM |  | 100 to 1000 nM | < 100 nM | < 100 nM | C (C represents the MIC in the presence of ≤4 g/mL of a β-lactamase inhibitor) | C (C represents the MIC in the presence of ≤4 g/mL of a β-lactamase inhibitor) | C (C represents the MIC in the presence of ≤4 g/mL of a β-lactamase inhibitor) | C (C represents the MIC in the presence of ≤4 g/mL of a β-lactamase inhibitor) | B (B represents the MIC in the presence of between 8 and 32 g/mL of a β-lactamase inhibitor) | C (C represents the MIC in the presence of ≤4 g/mL of a β-lactamase inhibitor) | < 100 nM
CS(=O)(=O)CCC(=O)N[C@H]1Cc2cccc(C(=O)O)c2OB1O [Example 21, (R)-2-Hydroxy-3-(3-methanesulfonyl-propionylamino)-3,4-dihydro-2H-benzo[e][1,2]oxaborinine-8-carboxylic acid] | < 100 nM |  | 1000 to 10000 nM | < 100 nM | < 100 nM | C (C represents the MIC in the presence of ≤4 g/mL of a β-lactamase inhibitor) | C (C represents the MIC in the presence of ≤4 g/mL of a β-lactamase inhibitor) | C (C represents the MIC in the presence of ≤4 g/mL of a β-lactamase inhibitor) | A (A represents an MIC of the fixed β-lactam antibiotic in the presence of >32 g/mL of a β-lactamase inhibitor) | B (B represents the MIC in the presence of between 8 and 32 g/mL of a β-lactamase inhibitor) | C (C represents the MIC in the presence of ≤4 g/mL of a β-lactamase inhibitor) | < 100 nM
